Numbers after ± are expanded uncertainties.
Assay: activity coefficient (dimensionless); of the first substance listed, at infinite dilution; xn = mol fraction of the nth substance listed
Conditions: Liquid, gas stripping method, x1 = 0

Structure (SMILES)	activity coefficient (249.94 K)	activity coefficient (270.01 K)	activity coefficient (289.99 K)	activity coefficient (310 K)	activity coefficient (329.99 K)	activity coefficient (250 K)	activity coefficient (270 K)	activity coefficient (270.06 K)	activity coefficient (309.98 K)	activity coefficient (249.98 K)
C=CCC [1-butene] + C=CCO	6.08 ± 0.18	5.85 ± 0.18	5.62 ± 0.17	5.35 ± 0.16	5.04 ± 0.15	–	–	–	–	–
C/C=C/C [(E)-2-butene] + C=CCO	–	–	5.67 ± 0.17	5.38 ± 0.16	4.91 ± 0.15	6.23 ± 0.19	5.85 ± 0.18	–	–	–
CCCl [chloroethane] + C=CCO	3.09 ± 0.09	–	2.99 ± 0.09	–	2.69 ± 0.08	–	–	3.07 ± 0.09	2.87 ± 0.09	–
C=CC=C [1,3-butadiene] + C=CCO	–	4.06 ± 0.12	4.02 ± 0.12	3.89 ± 0.12	3.59 ± 0.11	4.12 ± 0.12	–	–	–	–
CC(C)C [2-methylpropane] + C=CCO	10.5 ± 0.3	9.51 ± 0.29	8.83 ± 0.26	8.11 ± 0.24	7.14 ± 0.21	–	–	–	–	–
CCCC [butane] + C=CCO	–	8.84 ± 0.27	8.2 ± 0.25	7.58 ± 0.23	6.79 ± 0.2	–	–	–	–	9.71 ± 0.29
COC [dimethyl ether] + C=CCO	1.23 ± 0.04	–	1.2 ± 0.04	–	1.16 ± 0.04	–	–	1.22 ± 0.04	1.2 ± 0.04	–
C/C=C\C [(Z)-2-butene] + C=CCO	5.53 ± 0.17	–	5.06 ± 0.15	–	4.57 ± 0.14	–	–	5.28 ± 0.16	4.85 ± 0.15	–
CC(F)F [1,1-difluoroethane] + C=CCO	5.09 ± 0.15	–	4.68 ± 0.14	–	4.02 ± 0.12	–	–	4.94 ± 0.15	4.39 ± 0.13	–

Reference: the NIST ThermoML archive (doi:10.1021/je0502647)
